Test results reported in patent publication US8754242B2, “Herbicides” (Syngenta Crop Protection LLC, priority 2007, dated 2014).

Key:
Assay type in all cases: in vivo
[1] = system: Digitaria sanguinalis (DIGSA); experiment: Test Example 1 post-emergence herbicidal activity; conditions: rate 125 g/ha, evaluated 15 days later; for pest or weed control at 125 g/ha: 360 h, read-out: Post-emergence activity DIGSA (100=total damage to plant; 0=no damage to plant)
Method in brief: (§1)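 Once sown in standard soil, pots received an aqueous spray of the formulated active ingredient, either after one day or after ten days of controlled glasshouse growth. Plants then grew under optimum greenhouse conditions. Herbicidal effect was assessed visually 15 (post-emergence) or 20 (pre-emergence) days later, 100 meaning total plant damage.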

Lolium perenne (LOLPE) [2] = experiment: Test Example 1 post-emergence herbicidal activity; conditions: rate 125 g/ha, evaluated 15 days later; for pest or weed control at 125 g/ha: 360 h, read-out: Post-emergence activity LOLPE (100=total damage to plant; 0=no damage to plant)
Method in brief: as §1

Avena fatua (AVEFA) [3] = experiment: Test Example 1 post-emergence herbicidal activity; conditions: rate 125 g/ha, evaluated 15 days later; for pest or weed control at 125 g/ha: 360 h, read-out: Post-emergence activity AVEFA (100=total damage to plant; 0=no damage to plant)
Method in brief: as §1

[4] = system: Echinochloa crus-galli (ECHCG); experiment: Test Example 1 post-emergence herbicidal activity; conditions: rate 125 g/ha, evaluated 15 days later; for pest or weed control at 125 g/ha: 360 h, read-out: Post-emergence activity ECHCG (100=total damage to plant; 0=no damage to plant)
Method in brief: as §1

[5] = system: Alopecurus myosuroides (ALOMY); experiment: Test Example 1 post-emergence herbicidal activity; conditions: rate 125 g/ha, evaluated 15 days later; for pest or weed control at 125 g/ha: 360 h, read-out: Post-emergence activity ALOMY (100=total damage to plant; 0=no damage to plant)
Method in brief: as §1

Setaria faberi (SETFA) [6] = experiment: Test Example 1 post-emergence herbicidal activity; conditions: rate 125 g/ha, evaluated 15 days later; for pest or weed control at 125 g/ha: 360 h, read-out: Post-emergence activity SETFA (100=total damage to plant; 0=no damage to plant)
Method in brief: as §1

[7] = system: Digitaria sanguinalis (DIGSA); experiment: Test Example 1 pre-emergence herbicidal activity; conditions: rate 250 g/ha, evaluated 20 days later; for pest or weed control at 250 g/ha: Digitaria sanguinalis, 480 h, read-out: Pre-emergence activity DIGSA (100=total damage to plant; 0=no damage to plant)
Method in brief: as §1

Lolium perenne (LOLPE) [8] = experiment: Test Example 1 pre-emergence herbicidal activity; conditions: rate 250 g/ha, evaluated 20 days later; for pest or weed control at 250 g/ha: Lolium perenne, 480 h, read-out: Pre-emergence activity LOLPE (100=total damage to plant; 0=no damage to plant)
Method in brief: as §1

Avena fatua (AVEFA) [9] = experiment: Test Example 1 pre-emergence herbicidal activity; conditions: rate 250 g/ha, evaluated 20 days later; for pest or weed control at 250 g/ha: Avena fatua, 480 h, read-out: Pre-emergence activity AVEFA (100=total damage to plant; 0=no damage to plant)
Method in brief: as §1

[10] = system: Echinochloa crus-galli (ECHCG); experiment: Test Example 1 pre-emergence herbicidal activity; conditions: rate 250 g/ha, evaluated 20 days later; for pest or weed control at 250 g/ha: Echinochloa crus-galli, 480 h, read-out: Pre-emergence activity ECHCG (100=total damage to plant; 0=no damage to plant)
Method in brief: as §1

[11] = system: Alopecurus myosuroides (ALOMY); experiment: Test Example 1 pre-emergence herbicidal activity; conditions: rate 250 g/ha, evaluated 20 days later; for pest or weed control at 250 g/ha: Alopecurus myosuroides, 480 h, read-out: Pre-emergence activity ALOMY (100=total damage to plant; 0=no damage to plant)
Method in brief: as §1

Setaria faberi (SETFA) [12] = experiment: Test Example 1 pre-emergence herbicidal activity; conditions: rate 250 g/ha, evaluated 20 days later; for pest or weed control at 250 g/ha: Setaria faberi, 480 h, read-out: Pre-emergence activity SETFA (100=total damage to plant; 0=no damage to plant)
Method in brief: as §1

winter wheat 'Hereward' = experiment: Test Example 2 post-emergence crop injury, alone and with cloquintocet-mexyl; conditions: Adigor 0.5%, 2-3 leaf seedlings, assessed 14-21 days after application
From the text: (§2) Test compounds were applied post-emergence at 60 g ai/ha, alone and in combination with cloquintocet-mexyl at 60 g ai/ha; the adjuvant Adigor (0.5%) was included for every treatment. The application volume was […]. Target plants were 2-3 leaf seedlings of winter wheat ‘Hereward’ and winter barley ‘Antoniya’ grown in a greenhouse under ambient conditions. Assessments were made at 14-21 days after application.

winter barley 'Antoniya' = experiment: as above; conditions: Adigor 0.5%, 2-3 leaf seedlings, assessed 14-21 days after application
From the text: as §2

maize = experiment: Test Example 3 crop injury of T1 alone and with safeners; conditions: safener (if any) at 1:1, 2-3 leaf stage, assessed 14-21 days after application
From the text: (§3) The test compound T1 was applied at 100 and 200 g ai/ha, alone and in combination with a range of safeners as 1:1 mixtures (for example at 100 g+100 g; 200 g+200 g) to the test plants—wheat and maize—at the 2-3 leaf stage. A 4-way safener mixture (cloquintocet-mexyl, benoxacor, fluxofenim and compound A*) was also applied with the test compound so that each safener was used a 1:1 ratio (for example at 100+100+100+100+100 g ai/ha). Assessments were made at 14-21 days after application.

wheat = experiment: as above; conditions: safener (if any) at 1:1, 2-3 leaf stage, assessed 14-21 days after application
From the text: as §3

[13] = compound 60 g/ha in combination with cloquintocet-mexyl 60 g/ha
[14] = compound 60 g/ha, cloquintocet-mexyl 0 g/ha

| Structure (SMILES) | pest or weed control at 125 g/ha [1] [%] | pest or weed control at 125 g/ha (Lolium perenne (LOLPE) [2]) [%] | pest or weed control at 125 g/ha (Avena fatua (AVEFA) [3]) [%] | pest or weed control at 125 g/ha [4] [%] | pest or weed control at 125 g/ha [5] [%] | pest or weed control at 125 g/ha (Setaria faberi (SETFA) [6]) [%] | pest or weed control at 250 g/ha [7] [%] | pest or weed control at 250 g/ha (Lolium perenne (LOLPE) [8]) [%] | pest or weed control at 250 g/ha (Avena fatua (AVEFA) [9]) [%] | pest or weed control at 250 g/ha [10] [%] | pest or weed control at 250 g/ha [11] [%] | pest or weed control at 250 g/ha (Setaria faberi (SETFA) [12]) [%] | Crop Injury (%) Wheat (winter wheat 'Hereward'; [13]) [%] | Crop Injury (%) Wheat (winter wheat 'Hereward'; [14]) [%] | Crop Injury (%) Barley (winter barley 'Antoniya'; [13]) [%] | Crop Injury (%) Barley (winter barley 'Antoniya'; [14]) [%] | also measured |
| --- | --- | --- | --- | --- | --- | --- | --- | --- | --- | --- | --- | --- | --- | --- | --- | --- | --- |
| Cc1cc(C)c(C2=C(O)[C@H]3[C@@H](C2=O)[C@@H]2CC[C@H]3O2)c(C)c1 [Example T3] | 100 | 60 | 30 | 100 | 60 | 90 | 80 | 100 | 80 | 100 | 90 | 70 | 0 | 28 | 5 | 5 |  |
| CCc1cc(C)cc(CC)c1C1=C(O)[C@H]2[C@@H](C1=O)[C@@H]1CC[C@H]2O1 [Example T1] |  |  |  |  |  |  |  |  |  |  |  |  | 18 | 85 | 73 | 99 | Post-emergence activity DIGSA (100=total damage to plant; 0=no damage to plant) [1]: 100; Post-emergence activity LOLPE (100=total damage to plant; 0=no damage to plant) (Lolium perenne (LOLPE) [2]): 80; Post-emergence activity AVEFA (100=total damage to plant; 0=no damage to plant) (Avena fatua (AVEFA) [3]): 90; Post-emergence activity ECHCG (100=total damage to plant; 0=no damage to plant) [4]: 100; Post-emergence activity ALOMY (100=total damage to plant; 0=no damage to plant) [5]: 90; Post-emergence activity SETFA (100=total damage to plant; 0=no damage to plant) (Setaria faberi (SETFA) [6]): 100; Maize Injury (%) 100 g/ha (maize; T1 at 100 g ai/ha): 90%; Maize Injury (%) 200 g/ha (maize; T1 at 200 g ai/ha): 100%; Wheat Injury (%) 100 g/ha (wheat; T1 at 100 g ai/ha): 83%; Wheat Injury (%) 200 g/ha (wheat; T1 at 200 g ai/ha): 92%; Pre-emergence activity DIGSA (100=total damage to plant; 0=no damage to plant) [7]: 100; Pre-emergence activity LOLPE (100=total damage to plant; 0=no damage to plant) (Lolium perenne (LOLPE) [8]): 100; Pre-emergence activity AVEFA (100=total damage to plant; 0=no damage to plant) (Avena fatua (AVEFA) [9]): 100; Pre-emergence activity ECHCG (100=total damage to plant; 0=no damage to plant) [10]: 100; Pre-emergence activity ALOMY (100=total damage to plant; 0=no damage to plant) [11]: 100; Pre-emergence activity SETFA (100=total damage to plant; 0=no damage to plant) (Setaria faberi (SETFA) [12]): 100 |
| CCc1cc(C)cc(CC)c1C1=C(O)[C@@H]2[C@@H]3O[C@@H](C[C@H]3c3ccc(F)c(F)c3)[C@@H]2C1=O (racemic) [Example T178] | 100 | 90 | 90 | 100 | 100 | 100 | 80 | 80 | 40 | 100 | 70 | 100 |  |  |  |  |  |
| CCc1cc(C)cc(CC)c1C1=C(O)[C@H]2[C@@H](C1=O)[C@@H]1CC[C@@]2(COC)O1 [Example T17] | 100 | 90 | 100 | 100 | 100 | 100 | 100 | 100 | 90 | 100 | 100 | 100 |  |  |  |  |  |
| CCc1cc(CC)c(C2=C(O)[C@H]3[C@@H](C2=O)[C@@H]2CC[C@H]3O2)c(CC)c1 [Example T5] | 100 | 80 | 70 | 100 | 70 | 90 | 100 | 100 | 80 | 100 | 100 | 80 |  |  |  |  |  |
